In US20130324707A1, “SYNTHETIC AMPHIPHILES FOR MEMBRANE PROTEIN MANIPULATION” (The Board of Trustees of the Leland Stanford Junior …, priority 2009, published 2013):
Marks after values point to notes of the source that are not given here. One block for each molecule: values may come before it.

Legend:
[1] = test system: human β2 adrenergic receptor-T4-lyosome fusion protein (β2AR-T4L); experiment: Thermal stabilization (Tm) of β2AR-T4L in amphiphile, normalized peak ratio 341 nm/356 nm; design: Tm: unit: °C; settings: 250 × CMC; for Tm: β2AR-T4L
β2AR = β2AR (Homo sapiens, UniProt P07550); experiment: Lipidic cubic phase (LCP) crystallization of agonist-bound β2AR; settings: detergent present before incorporation into LCP
Source text: LCP methods have proven useful for crystallizing membrane proteins, including G protein-coupled receptors (GPCRs). However, the process of incorporating membrane proteins from a detergent solubilized state into LCP can lead to denaturation of the protein.

[2] = test system: human β2 adrenergic receptor-T4-lyosome fusion protein (β2AR-T4L); experiment: Thermal stabilization (Tm) of β2AR-T4L in amphiphile, normalized peak ratio 341 nm/356 nm; design: Tm: unit: °C; settings: for Tm: β2AR-T4L
Source text: FIG. 3 illustrates the results of comparing MNGs to MPAs at 10×CMC for stabilization efficacy of β2 adrenergic receptor-T4-lyosome fusion protein (β2AR-T4L), according to an embodiment of the invention.
FIG. 4 illustrates the results of comparing MNGs to MPAs at 50×CMC for stabilization efficacy of β2AR-T4L, according to an embodiment of the invention. Similar to FIG. 3, the horizontal dotted line extending from 50% on the y-axis in FIG. 4 indicates the melting temperature (Tm).
The branched amphiphiles of the invention have shown to have several advantageous properties that match or surpass those of many known amphiphiles. The branched nature provide improved stabilization, attributable to the dual saccharide chains, and improved solubilization, attributable to the dual hydrophobic tail groups. FIGS. 3 and 4 show a comparative study showing normalized peak ratios (341 nm/356 nm) for six different amphiphiles (illustrated in Schemes F and G) from 25° C. to 85° C., at 10×CMC and 50×CMC for human β2 adrenergic receptor-T4-lyosome fusion protein (β2AR-T4L).

M3 muscarinic receptor = experiment: [3H]N-methylscopolamine binding to purified M3 muscarinic receptor in amphiphiles/detergents; settings: for Binding (counts per minute (CPM)) of [3H]NMS compared to the use of DDM alone: upon addition of the amphiphile, HEPES pH 7.5, 100 mM NaCl
Description: For FIG. 5, the samples (DDM, MNG-28, and MNG-14) were combined with HEPES pH 7.5 buffer in a 100 mM NaCl solution. […] Therefore, the amphiphilic compounds described herein, such as the MNG amphiphiles, provide new options for enhancing the function and analysis of various isolated and/or purified proteins and receptors.

[3] = test system: R. capsulatus LHI-RC superassembly; experiment: R. capsulatus photosynthetic superassembly solubilization and purification assay (detergent classification); design: species or system Rhodobacter capsulatus; settings: words printed in the Classification column instead of a class: behaviour of the amphiphile
Description: To begin the solubilization and purification process, frozen aliquots of R. capsulatus membranes were thawed, homogenized, and equilibrated to 32° C. for 30 minutes.
The membrane samples were allowed to incubate with the amphiphile for 30 minutes at 32° C. The solubilized material was then separated from the membrane debris in an ultracentrifuge at 315,000×g at 4° C. for 30 minutes. […] The tubes were then incubated and inverted for 1 hour at 4° C.
Once binding was complete, samples were loaded onto resin-retaining spin columns (e.g., emptied His Spin Trap™ columns; GE Healthcare). The columns were then inserted into a 2 mL microcentrifuge tube to retain the filtered solution during centrifugation. […] Finally, protein was eluted into a fresh microcentrifuge tube with three 0.2 mL elution buffer aliquots (this buffer was identical to binding buffer with the addition of 1 M imidazole).
The R. capsulatus LHI-RC complexes extracted and purified by this procedure contain large numbers of cofactors that have absorptions at distinct wavelengths, and each component of the LHI-RC superassembly has a different inherent stability outside the lipid bilayer. The solubilization protocol outlined above therefore provides a multifaceted assessment of the efficacy of conventional detergents and novel amphiphiles. UV-Vis absorption spectroscopy data obtained at various stages of the protocol allow one to determine which protein components have degraded at these stages. […] The disruption potential was measured as the yield of superassembly extracted during solubilization (or, alternatively and more precisely, as the absence of superassembly in the pellet from the spin following solubilization).
The stabilizing propensity was determined from the spectra of the purified protein.

[4] = Critical micelle concentration (CMC) by fluorescent dye uptake; type: physicochemical
Source text: The Critical Micelle Concentrations (CMCs) of compounds of the invention can be determined by standard techniques known to those of skill in the art. For example, CMCs of the carbohydrate-based amphiphiles described herein can be determined by monitoring uptake of a fluorescent dye (e.g., a dye such as 1,6-diphenylhexatriene) with increasing detergent concentration, monitored by fluorescence spectroscopy.

[5] = 10 × CMC, scan from 25° C. to 85° C.

β2AR, sequence (P07550 whole entry): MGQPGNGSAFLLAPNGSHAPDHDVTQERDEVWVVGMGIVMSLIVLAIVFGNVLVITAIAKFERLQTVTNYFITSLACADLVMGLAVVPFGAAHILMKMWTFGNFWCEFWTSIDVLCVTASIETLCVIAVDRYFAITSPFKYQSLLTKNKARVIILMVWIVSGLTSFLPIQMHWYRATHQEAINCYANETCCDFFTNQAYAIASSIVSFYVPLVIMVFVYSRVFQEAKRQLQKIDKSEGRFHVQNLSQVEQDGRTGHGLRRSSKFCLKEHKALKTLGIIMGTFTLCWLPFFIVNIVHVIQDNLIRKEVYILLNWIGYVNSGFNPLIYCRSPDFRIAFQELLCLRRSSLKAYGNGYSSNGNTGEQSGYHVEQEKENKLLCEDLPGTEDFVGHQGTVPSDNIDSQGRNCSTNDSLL

Compound: CC(C)(C)c1ccc(C(=O)NCC(CNC(=O)c2ccc(C(C)(C)C)cc2)(COC2OC(CO)C(O)C(O)C2O)COC2OC(CO)C(O)C(O)C2O)cc1 (centres unmarked) [GNG-3]
- Classification (entry in words) [3]: aggregation

Compound: CC(C)(C)c1ccc(OCC(COc2ccc(C(C)(C)C)cc2)(COC2OC(CO)C(O)C(O)C2O)COC2OC(CO)C(O)C(O)C2O)cc1 (centres unmarked) [GNG-8]
- Classification (entry in words) [3]: aggregation

Compound: O=C(NCC(CNC(=O)C1CCCCC1)(COC1OC(CO)C(O)C(O)C1O)COC1OC(CO)C(O)C(O)C1O)C1CCCCC1 (centres unmarked) [GNG-5]
- Classification (entry in words) [3]: Insoluble

Now from value to molecule, other results behind:

- Tm [1]: 62.2 (n = 4)
- Tm [2, 5]: 63.5 (n = 4)*
- Tm ([2]; 50 × CMC): 63.0 (n = 4)
- Specific binding to [3H]N-methylscopolamine (M3 muscarinic receptor; M3 receptor purified from baculovirus infected insect cells using the detergent): little specific binding
Compound: CCCCCCCCCCCCO[C@@H]1O[C@H](CO)[C@@H](O[C@H]2O[C@H](CO)[C@@H](O)[C@H](O)[C@H]2O)[C@H](O)[C@H]1O [DDM, dodecylmaltoside, reference compound]
- Outcome of LCP crystallization of agonist-bound β2AR (β2AR): not sufficiently stable to survive the transition to LCP

- ΔTm ([1]; relative to DDM): +4.6
- Tm [1]: 66.8 (n = 3)
- CMC [4]: 0.01 mM
- CMC (%) [4]: 0.001%
- ΔTm ([2]; 10 × CMC, relative to DDM): +3.9
- Tm [2, 5]: 67.4 (n = 3)
- ΔTm ([2]; 50 × CMC, relative to DDM): +5.4
- Tm ([2]; 50 × CMC): 68.4 (n = 3)*
- ΔTm ([2]; concentration not given, matches most favourable (*) Tm minus DDM 63.5): +4.9
- Binding (counts per minute (CPM)) of [3H]NMS compared to the use of DDM alone (M3 muscarinic receptor): nine-fold higher
Compound: CCCCCCCCCCC(CCCCCCCCCC)(COC1OC(CO)C(OC2OC(CO)C(O)C(O)C2O)C(O)C1O)COC1OC(CO)C(OC2OC(CO)C(O)C(O)C2O)C(O)C1O (centres unmarked) [MNG-14]
- Outcome of LCP crystallization of agonist-bound β2AR (β2AR): diffraction quality crystals were obtained
- Stabilization of β2AR-T4L, comparison in words ([2]; 10 times CMC and 50 times CMC): best overall properties for stabilizing β2AR-T4L

- CMC [4]: 0.018 mM
- CMC (%) [4]: 0.0018%
- Binding (counts per minute (CPM)) of [3H]NMS compared to the use of DDM alone (M3 muscarinic receptor): three-fold greater
Compound: CCCCCCCCCC(CCCCCCCCC)(COC1OC(CO)C(OC2OC(CO)C(O)C(O)C2O)C(O)C1O)COC1OC(CO)C(OC2OC(CO)C(O)C(O)C2O)C(O)C1O (centres unmarked) [MNG-28]

- CMC [4]: 0.11 mM
- CMC (%) [4]: 0.0066%
- Classification (entry in words) [3]: limited
Compound: CCCCCCCC(CCCCCCC)(COC1OC(CO)C(O)C(O)C1O)COC1OC(CO)C(O)C(O)C1O (centres unmarked) [GNG-9]
